Patent US20260102383A1, “LPAR1 Inhibitors” (AbbVie Inc., priority 2024, published 2026)
pIC50: −log10 of the molar value.

Biological target: T1, human LPAR1 (Homo sapiens, UniProt Q92633)
T1 construct: host or cells: TangoEDG2-bla U2OS cells
Test: Arrestin assay (Arrestin Reporter EDG2-bla U2OS), inhibition of LPA-stimulated signal
Assay type: cell-based
Conditions: TangoEDG2-bla U2OS cells expressing human LPAR1; 0.25 μM LPA; read-out: Arrestin Reporter EDG2-bla U2OS Human Merged IC50
Method in brief: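 TangoEDG2-bla U2OS cells (1×10^4/well, plated 18-20 h) were preincubated 1 h at 37 °C with compound (12-point, 3-fold, 10 μM to 0.00006 μM), then stimulated 3 h with 0.25 μM LPA final. LiveBLAzer FRET B/G 460/530 nm emission ratio gave % inhibition; IC50 from 4-parameter variable-slope fit.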

T1 sequence (Q92633 whole entry): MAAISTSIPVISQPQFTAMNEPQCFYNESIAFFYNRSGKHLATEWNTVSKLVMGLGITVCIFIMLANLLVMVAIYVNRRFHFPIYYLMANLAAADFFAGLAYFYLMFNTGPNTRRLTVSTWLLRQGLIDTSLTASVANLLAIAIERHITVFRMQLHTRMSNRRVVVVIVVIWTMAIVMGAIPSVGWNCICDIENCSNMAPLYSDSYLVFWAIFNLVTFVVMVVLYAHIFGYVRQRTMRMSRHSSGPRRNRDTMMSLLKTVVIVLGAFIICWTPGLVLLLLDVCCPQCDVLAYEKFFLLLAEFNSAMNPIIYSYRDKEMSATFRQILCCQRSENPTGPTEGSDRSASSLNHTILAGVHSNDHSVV

SMILES | pIC50
CC(C)c1ccnn1C1(C(=O)Nc2ccc(Cl)cc2OC(F)F)CCN(C2(CC(=O)O)CCOCC2)CC1 [Compound 128, 2-[4-[4-[[4-chloro-2-(difluoromethoxy)phenyl]carbamoyl]-4-(5-isopropylpyrazol-1-yl)-1-piperidyl]tetrahydropyran-4-yl]acetic acid] | 7.25
CC(C)c1ccnn1C1(C(=O)Nc2ccc(Cl)cc2OC(F)F)CCN(CC(Cn2cccn2)C(=O)O)CC1 (stereo not shown) [Compound 129, 2-[[4-[[4-chloro-2-(difluoromethoxy)phenyl]carbamoyl]-4-(5-isopropylpyrazol-1-yl)-1-piperidyl]methyl]-3-pyrazol-1-yl-propanoic acid] | 7.46
CC(C)c1ccnn1C1(C(=O)Nc2ccc(Cl)cc2OC(F)F)CCN(C[C@@H](C)C(C)(C)C(=O)O)CC1 [Compound 130] | 7.34
COC(=O)N[C@]1(C(=O)O)C[C@@H](N2CCC(C(=O)Nc3ccc(Cl)cc3OC(F)F)(n3nccc3C(C)C)CC2)C1 [Compound 131] | 6.87
CC(C)c1ccnn1C1(C(=O)Nc2ccc(Cl)cc2OC(F)F)CCN([C@H]2C[C@@](NS(C)(=O)=O)(C(=O)O)C2)CC1 [Compound 132, (1r,3r)-3-[4-[[4-chloro-2-(difluoromethoxy)phenyl]carbamoyl]-4-(5-isopropylpyrazol-1-yl)-1-piperidyl]-1-(methanesulfonamido) cyclobutanecarboxylic acid] | 6.75
CC(C)c1ccnn1C1(C(=O)Nc2ccc(Cl)cc2OC(F)F)CCN(CC(CCO)C(=O)O)CC1 (stereo not shown) [Compound 133, 2-[[4-[[4-chloro-2-(difluoromethoxy)phenyl]carbamoyl]-4-(5-isopropylpyrazol-1-yl)-1-piperidyl]methyl]-4-hydroxy-butanoic acid] | 7.13
CCOC(CN1CCC(C(=O)Nc2ccc(Cl)cc2OC(F)F)(n2nccc2C(C)C)CC1)C(=O)O (stereo not shown) [Compound 134, 3-[4-[[4-chloro-2-(difluoromethoxy)phenyl]carbamoyl]-4-(5-isopropylpyrazol-1-yl)-1-piperidyl]-2-ethoxy-propanoic acid] | 7.15
COCOCC(CN1CCC(C(=O)Nc2ccc(Cl)cc2OC(F)F)(n2nccc2C(C)C)CC1)C(=O)O (stereo not shown) [Compound 135, 2-[[4-[[4-chloro-2-(difluoromethoxy)phenyl]carbamoyl]-4-(5-isopropylpyrazol-1-yl)-1-piperidyl]methyl]-3-(methoxymethoxy) propanoic acid] | 7.11
CC(C)c1ccnn1C1(C(=O)Nc2ccc(Cl)cc2OC(F)F)CCN(CC(C(=O)O)C2CCOC2)CC1 (stereo not shown) [Compound 136, 3-[4-[[4-chloro-2-(difluoromethoxy)phenyl]carbamoyl]-4-(5-isopropylpyrazol-1-yl)-1-piperidyl]-2-tetrahydrofuran-3-yl-propanoic acid] | 7.33
CC(C)c1ccnn1C1(C(=O)Nc2ccc(Cl)cc2OC(F)F)CCN([C@@H]2CO[C@@H](C(=O)O)C2)CC1 [Compound 138, (2R,4S)-4-[4-[[4-chloro-2-(difluoromethoxy)phenyl]carbamoyl]-4-(5-isopropylpyrazol-1-yl)-1-piperidyl]tetrahydrofuran-2-carboxylic acid] | 7.14
CC(C)c1ccnn1C1(C(=O)Nc2ccc(Cl)cc2OC(F)F)CCN([C@H]2CO[C@@H](C(=O)O)C2)CC1 [Compound 139, (2R,4R)-4-[4-[[4-chloro-2-(difluoromethoxy)phenyl]carbamoyl]-4-(5-isopropylpyrazol-1-yl)-1-piperidyl]tetrahydrofuran-2-carboxylic acid] | 7.27
CC(C)c1c(F)cnn1C1(C(=O)Nc2ccc(Cl)cc2OC(F)F)CCN(C[C@H](C(=O)O)C2CCOCC2)CC1 [Compound 141, (28)-3-[4-[[4-chloro-2-(difluoromethoxy)phenyl]carbamoyl]-4-(4-fluoro-5-isopropyl-pyrazol-1-yl)-1-piperidyl]-2-tetrahydropyran-4-yl-propanoic acid] | 7.59
COCCC(CN1CCC(C(=O)Nc2ccc(Cl)cc2OC(F)F)(n2nccc2C(C)C)CC1)C(=O)O (stereo not shown) [Compound 142, 2-[[4-[[4-chloro-2-(difluoromethoxy)phenyl]carbamoyl]-4-(5-isopropylpyrazol-1-yl)-1-piperidyl]methyl]-4-methoxy-butanoic acid] | 7.42
C=C(CN1CCC(C(=O)Nc2ccc(Cl)cc2OC(F)F)(n2nccc2C(C)C)CC1)C(=O)O [Compound 143, 2-[[4-[[4-chloro-2-(difluoromethoxy)phenyl]carbamoyl]-4-(5-isopropylpyrazol-1-yl)-1-piperidyl]methyl]prop-2-enoic acid] | 7.49
CCO[C@H](CN1CCC(C(=O)Nc2ccc(Cl)cc2OC(F)F)(n2nccc2C(C)C)CC1)C(=O)O [Compound 144, (2R)-3-[4-[[4-chloro-2-(difluoromethoxy)phenyl]carbamoyl]-4-(5-isopropylpyrazol-1-yl)-1-piperidyl]-2-ethoxy-propanoic acid] | 7.25
COC1CCC(C(CN2CCC(C(=O)Nc3ccc(Cl)cc3OC(F)F)(n3nccc3C(C)C)CC2)C(=O)O)CC1 (stereo not shown) [Compound 145, 3-[4-[[4-chloro-2-(difluoromethoxy)phenyl]carbamoyl]-4-(5-isopropylpyrazol-1-yl)-1-piperidyl]-2-(4-methoxycyclohexyl) propanoic acid] | 7.39
CC(C)c1ccnn1C1(C(=O)Nc2ccc(Cl)cc2OC(F)F)CCN(CC(CC#N)C(=O)O)CC1 (stereo not shown) [Compound 146, 2-[[4-[[4-chloro-2-(difluoromethoxy)phenyl]carbamoyl]-4-(5-isopropylpyrazol-1-yl)-1-piperidyl]methyl]-3-cyano-propanoic acid] | 7.81
CC(C)c1ccnn1C1(C(=O)Nc2ccc(Cl)cc2OC(F)F)CCN(CC(C(=O)O)c2cnn(C)c2)CC1 (stereo not shown) [Compound 147, 3-[4-[[4-chloro-2-(difluoromethoxy)phenyl]carbamoyl]-4-(5-isopropylpyrazol-1-yl)-1-piperidyl]-2-(1-methylpyrazol-4-yl)propanoic acid] | 6.78
CC(C)c1ccnn1C1(C(=O)Nc2ccc(Cl)cc2OC(F)F)CCN(C[C@H](C(=O)O)[C@H]2CCOC2)CC1 [Compound 148, (2R)-3-[4-[[4-chloro-2-(difluoromethoxy)phenyl]carbamoyl]-4-(5-isopropylpyrazol-1-yl)-1-piperidyl]-2-[(3R)-tetrahydrofuran-3-yl]propanoic acid] | 7.30
CC(C)c1c(F)cnn1C1(C(=O)Nc2ccc(Cl)cc2OC(F)F)CCN(CC2(C(=O)O)CCC(=O)CC2)CC1 [Compound 153, 1-[[4-[[4-chloro-2-(difluoromethoxy)phenyl]carbamoyl]-4-(4-fluoro-5-isopropyl-pyrazol-1-yl)-1-piperidyl]methyl]-4-oxo-cyclohexanecarboxylic acid] | 7.52
CC(C)c1ccnn1C1(C(=O)Nc2ccc(Cl)cc2OC(F)F)CCN(C[C@@H](C(=O)O)c2cnn(C)c2)CC1 [Compound 155, (2S)-3-[4-[[4-chloro-2-(difluoromethoxy)phenyl]carbamoyl]-4-(5-isopropylpyrazol-1-yl)-1-piperidyl]-2-(1-methylpyrazol-4-yl)propanoic acid] | 6.90
COCC[C@@H](CN1CCC(C(=O)Nc2ccc(Cl)cc2OC(F)F)(n2nccc2C(C)C)CC1)C(=O)O [Compound 156, (2S)-2-[[4-[[4-chloro-2-(difluoromethoxy)phenyl]carbamoyl]-4-(5-isopropylpyrazol-1-yl)-1-piperidyl]methyl]-4-methoxy-butanoic acid] | 7.30
COCC[C@H](CN1CCC(C(=O)Nc2ccc(Cl)cc2OC(F)F)(n2nccc2C(C)C)CC1)C(=O)O [Compound 157, (2R)-2-[[4-[[4-chloro-2-(difluoromethoxy)phenyl]carbamoyl]-4-(5-isopropylpyrazol-1-yl)-1-piperidyl]methyl]-4-methoxy-butanoic acid] | 7.27
CC(C)c1c(F)cnn1C1(C(=O)Nc2ccc(Cl)cc2OC(F)F)CCN(C[C@@H](C(=O)O)C2CCOCC2)CC1 [Compound 158, (2.8)-3-[4-[[4-chloro-2-(difluoromethoxy)phenyl]carbamoyl]-4-(4-fluoro-5-isopropyl-pyrazol-1-yl)-1-piperidyl]-2-tetrahydropyran-4-yl-propanoic acid] | 7.34
CC(C)c1ccnn1C1(C(=O)Nc2ccc(Cl)cc2OC(F)F)CCN(C[C@H](C(=O)O)N2C[C@@H](C)O[C@H](C)C2)CC1 [Compound 159, (2R)-3-[4-[[4-chloro-2-(difluoromethoxy)phenyl]carbamoyl]-4-(5-isopropylpyrazol-1-yl)-1-piperidyl]-2-[(2R,6R)-2,6-dimethylmorpholin-4-yl]propanoic acid] | 6.49
CC(C)c1ccnn1C1(C(=O)Nc2ccc(Cl)cc2OC(F)F)CCN(C[C@@H](C(=O)O)N2C[C@@H](C)O[C@H](C)C2)CC1 [Compound 160, (2S)-3-[4-[[4-chloro-2-(difluoromethoxy)phenyl]carbamoyl]-4-(5-isopropylpyrazol-1-yl)-1-piperidyl]-2-[(2R,6R)-2,6-dimethylmorpholin-4-yl]propanoic acid] | 7.06
CC(C)c1c(F)cnn1C1(C(=O)Nc2ccc(Cl)cc2OC(F)F)CCN(C[C@]2(C(=O)O)CC[C@H](O)CC2)CC1 [Compound 161, (1r,4r)-1-[[4-[[4-chloro-2-(difluoromethoxy)phenyl]carbamoyl]-4-(4-fluoro-S-isopropyl-pyrazol-1-yl)-1-piperidyl]methyl]-4-hydroxy-cyclohexanecarboxylic acid] | 6.67
CC(C)c1c(F)cnn1C1(C(=O)Nc2ccc(Cl)cc2OC(F)F)CCN(C[C@]2(C(=O)O)CC[C@@H](O)CC2)CC1 [Compound 162, (1s,4s)-1-[[4-[[4-chloro-2-(difluoromethoxy)phenyl]carbamoyl]-4-(4-fluoro-5-isopropyl-pyrazol-1-yl)-1-piperidyl]methyl]-4-hydroxy-cyclohexanecarboxylic acid] | 7.29
